According to PMC7583046, “The Paralogue of the Intrinsically Disordered Nuclear Protein 1 Has a Nuclear Localization Sequence that Binds to Human Importin α3” (International Journal of Molecular Sciences, 2020):
Entries after “also recorded” stand apart in the source; their conditions may differ.

What was measured:
[1] = Aggregation / self-association tendency; type: physicochemical; conditions: isolated peptide, refers to Section 2.2.1
[2] = molecular target: T1, ∆Impα3 (Impα3 without IBB, residues 64-521) (Homo sapiens, UniProt O00629); assay: Isothermal titration calorimetry, binding to ∆Impα3; conditions: Tris 50 mM pH 8, 298 K
T1 construct: codon-optimized, His-tagged ∆Impα3 (residues 64-521) were carried out using BL21 (DE3) cells; His-tag; made in house; host or cells: E. coli BL21 (DE3)
T1 sequence (O00629 64-521): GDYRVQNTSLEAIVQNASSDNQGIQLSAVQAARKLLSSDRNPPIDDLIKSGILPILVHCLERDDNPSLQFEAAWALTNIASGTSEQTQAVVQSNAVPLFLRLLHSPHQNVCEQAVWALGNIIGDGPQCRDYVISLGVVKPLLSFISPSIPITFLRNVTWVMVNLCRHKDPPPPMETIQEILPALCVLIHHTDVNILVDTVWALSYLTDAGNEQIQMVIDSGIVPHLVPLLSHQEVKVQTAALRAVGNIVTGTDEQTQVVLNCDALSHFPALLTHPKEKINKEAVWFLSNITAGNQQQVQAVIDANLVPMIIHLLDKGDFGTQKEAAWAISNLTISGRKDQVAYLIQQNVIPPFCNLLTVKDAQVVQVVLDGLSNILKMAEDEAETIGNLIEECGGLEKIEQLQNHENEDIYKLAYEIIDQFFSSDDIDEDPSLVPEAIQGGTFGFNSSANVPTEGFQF
From the text: Figure 4 Binding of NLS-NUNPR1L to both importin species: (A) Titration curve monitoring the changes of Impα3 fluorescence at 340 nm in the presence of NLS-NUPR1L, after excitation at 280 nm. (B) Titration curve monitoring the changes of ∆Impα3 fluorescence at 340 nm in the presence of NLS-NUPR1L, after excitation at 280 nm. […] (C) Calorimetric binding isotherms (ligand normalized heat effect per injection as a function of the ligand/protein molar ratio) for the interaction of NLS-NUPR1L with Impα3 (left) and ∆Impα3 (right) are shown, with the thermogram (raw thermal power data as a function of time) at the top of each panel. Binding parameters were estimated by non-linear least squares regression data analysis of the interaction isotherms applying a single ligand binding site model implemented in Origin 7.0. (OriginLab, Northampton, MA, USA).
The experimental set-up and data processing of ITC experiments have been described previously. […] The temperature for all experiments was 298 K. The experiments were analyzed applying a model considering a single ligand binding site (1:1 stoichiometry for the NLS-NUPR1L/Impα3 (or ∆Impα3) interaction) implemented in Origin 7.0 (OriginLab, Northampton, MA, USA).

[3] = Conformation of isolated peptide by fluorescence, far-UV CD and NMR; type: physicochemical
Description: Appropriate blank corrections were made in all spectra.
All spectra were corrected by subtracting the corresponding baseline.
An amount of 128 scans was acquired with 16 K acquisition points for the homonuclear 1D-^1H-NMR spectrum, and using a peptide concentration of 1.0–1.2 mM. Water signal was suppressed using the WATERGATE sequence. The spectrum was processed with Bruker TopSpin 2.1 (Bruker GmbH, Karlsruhe, Germany), after zero-filling and apodization with an exponential window.
Two-dimensional spectra were acquired in each dimension in the phase-sensitive mode using the time-proportional-phase incrementation technique (TPPI) and a spectral width of 7801.69 Hz; the final concentration of the NLS-NUPR1L was the same as that used in the 1D experiments. Standard TOCSY (Total correlation spectroscopy) (with a mixing time of 80 ms) and NOESY experiments (with a mixing time of 250 ms) were performed by acquiring a data matrix size of 4096 × 512 points. The DIPSI (decoupling in the presence of scalar interactions) spin-lock sequence was used in the TOCSY experiments with 1 s of relaxation time. Typically, 96 scans were acquired per increment in the first dimension, and the residual water signal was removed using the WATERGATE sequence. NOESY spectra were collected typically with 96 scans per increment in the first dimension, with the residual water signal removed again by the WATERGATE sequence, and with 1 s of relaxation time. Data were zero-filled, resolution-enhanced with a square sine-bell window function optimized in each spectrum, baseline-corrected, and processed with the Bruker TopSpin 2.1 software (Bruker GmbH, Karlsruhe, Germany). The ^1H resonances were assigned by standard sequential assignment processes. The chemical shift values of Hα protons in random-coil regions were obtained from tabulated data, corrected by neighbouring residue effects.

[4] = system: Impα3; conditions: 35 μM peptide, pH 7.2, 50 mM deuterated Tris, 1-1 echo sequence
Description: The NMR experiments were acquired at 283 K on a Bruker Avance spectrometer (Bruker GmbH, Karlsruhe, Germany), equipped with a triple resonance probe and z-pulse field gradients. All experiments with NLS-NUPR1L were carried out at pH 7.2, 50 mM deuterated Tris buffer (not corrected for isotope effects). The spectra were calibrated with TSP ((trimethylsilyl)-2,2,3,3-tetradeuteropropionic acid), by considering pH-dependent changes of its chemical-shifts; probe temperature was calibrated with methanol.
Measurements of the T2 (transverse relaxation time) provide a convenient method to determine the molecular mass of a macromolecule, as the correlation time, τc, is approximately equal to 1/(5 × T2). We measured the T2 of one of the indole protons (Section 2.2.1) for NLS-NUPR1L (at 35 μM concentration) in isolation and in the presence of Impα3 (at a final concentration of 7 μM) with the 1-1 echo sequence. The calculation of the T2 was carried out as described.

Ac-RTRREQALRTNWPAPGGHERKVAQ-NH2 [NLS-NUPR1L]
tendency to aggregate [1]: did not have any tendency to aggregate | n, stoichiometry (ITC), ∆Impα3 [2]: 0.75 ± 0.06 | ∆H (ITC), ∆Impα3 [2]: -2.4 ± 0.5 kcal/mol | far-UV CD minimum ([3]; 298 K, 50 mM phosphate pH 7.0): ~ 203 nm | fluorescence emission maximum ([3]; excitation 280 nm, 50 mM phosphate pH 7.0, 298 K): 353 nm | conformation in aqueous solution ([3]; fluorescence, far-UV CD and NMR): random-coil conformation; also recorded: disordered in aqueous solution; also recorded: did not have any propensity to acquire helix- or turn-like conformations | T2 of most up-field indole signal, in the presence of Impα3 ([4]; 7 μM Impα3, 283 K): 36.7 ms | T2 of most up-field indole signal, isolated peptide ([4]; 283 K): 62.2 ms
